These compounds were tested on hypoxia-inducible endogenous VEGF expression in HeLa cells (assay: Hypoxia-inducible endogenous VEGF expression, VEGF ELISA of conditioned media (dose-response EC50)). Conditions: Homo sapiens, HeLa cells under hypoxic conditions.
Type: cell-based
Protocol: The ability of the compounds of the invention to modulate hypoxia-inducible endogenous VEGF expression may be analyzed as follows. VEGF protein levels may be monitored by an ELISA assay (R&D Systems). Briefly, HeLa cells may be cultured for 24-48 hours under hypoxic conditions (1% O2, 5% CO2, balanced with nitrogen) in the presence or absence of a compound of the invention. The conditioned media may then be assayed by ELISA, and the concentration of VEGF calculated from the standard ELISA curve of each assay.
A dose-response analysis may be performed using the ELISA assay and conditions described above. The conditions for the dose-response ELISA are analogous to those described above. A series of, e.g., seven different concentrations may be analyzed. […] Dose-response curves may be plotted using percentage inhibition versus concentration of the compound, and EC50 and CC50 values may be generated for each compound with the maximal inhibition set as 100% and the minimal inhibition as 0%.

Structure (SMILES) | EC50
N#Cc1ccc(C2c3[nH]c4ccc(Cl)cc4c3CCN2C(=O)OCCCl)cc1 (centres unmarked) [Compound 12] | < 0.008 µM
COC(=O)N1CCc2c([nH]c3ccc(Cl)cc23)C1c1ccccc1 (centres unmarked) [Compound 96] | 0.008 to 0.04 µM
CCOC(=O)N1CCc2c([nH]c3ccc(Cl)cc23)C1c1ccccc1F (centres unmarked) [Compound 106] | 0.008 to 0.04 µM
COC(=O)N1CCc2c([nH]c3ccc(Cl)cc23)C1c1cc(F)ccc1F (centres unmarked) [Compound 154] | 0.04 to 0.2 µM
O=C(OCCCl)N1CCc2c([nH]c3ccc(Cl)cc23)C1c1cccc(F)c1 (centres unmarked) [Compound 116] | 0.008 to 0.04 µM
Fc1cccc(C2NCCc3c2[nH]c2ccc(Cl)cc32)c1F (centres unmarked) [Compound 123] | 0.008 to 0.04 µM
O=C(OCCCl)N1CCc2c([nH]c3ccc(Cl)cc23)C1c1ccc(Cl)cc1 (centres unmarked) [Compound 55] | 0.008 to 0.04 µM
COC(=O)N1CCc2c([nH]c3ccc(Cl)cc23)C1c1cccc(F)c1F (centres unmarked) [Compound 53] | 0.008 to 0.04 µM
CCCOC(=O)N1CCc2c([nH]c3ccc(Cl)cc23)C1c1ccc(C#N)cc1 (centres unmarked) [Compound 71] | 0.008 to 0.04 µM
CC(=O)N1CCc2c([nH]c3ccc(Br)cc23)C1c1ccc(C)cc1 (centres unmarked) [Compound 131] | 0.04 to 0.2 µM
COC(=O)N1CCc2c([nH]c3ccc(Cl)cc23)C1c1cccc(Cl)c1 (centres unmarked) [Compound 104] | 0.008 to 0.04 µM
O=C(OCCCl)N1CCc2c([nH]c3ccc(Cl)cc23)C1c1ccc(F)c(F)c1 (centres unmarked) [Compound 35] | < 0.008 µM
COC(=O)N1CCc2c([nH]c3ccc(Cl)cc23)C1c1cc(F)cc(F)c1 (centres unmarked) [Compound 92] | 0.008 to 0.04 µM
COc1cccc(C2c3[nH]c4ccc(Cl)cc4c3CCN2C(=O)OCCCl)c1 (centres unmarked) [Compound 117] | 0.008 to 0.04 µM
C[C@H](NC(=O)OC(C)(C)C)C(=O)N1CCc2c([nH]c3ccc(Cl)cc23)C1c1ccccc1 (some centres unmarked) [Compound 166] | 0.04 to 0.2 µM
Clc1cccc(C2NCCc3c2[nH]c2ccc(Br)cc32)c1 (centres unmarked) [Compound 137] | 0.04 to 0.2 µM

The remaining lines, values ahead:

EC50 | Structure (SMILES)
> 1 µM | Clc1ccc2[nH]c3c(c2c1)CCN(Cc1ccccc1)C3c1nccs1 (centres unmarked) [Compound 262]
< 0.008 µM | COc1ccc(C2c3[nH]c4ccc(Br)cc4c3CCN2C(=O)Oc2ccc(Cl)cc2)cc1 (centres unmarked) [Compound 355]
> 1 µM | COC(=O)c1cccc(NC(=S)N2CCc3c([nH]c4ccccc34)C2c2ccc(OC)cc2)c1 (centres unmarked) [Compound 316]
0.008 to 0.04 µM | O=C(Oc1ccc(Cl)cc1)N1CCc2c([nH]c3ccc(Cl)cc23)C1c1ccc2c(c1)OCO2 (centres unmarked) [Compound 349]
0.2 to 1 µM | Fc1ccc(F)c(C2NCCc3c2[nH]c2ccc(Cl)cc32)c1 (centres unmarked) [Compound 194]
< 0.008 µM | CCCOC(=O)N1CCc2c([nH]c3ccc(Cl)cc23)C1c1ccc(OCCOC)cc1 (centres unmarked) [Compound 392]
> 1 µM | Clc1ccc2[nH]c3c(c2c1)CCN(Cc1ccoc1)C3c1ccco1 (centres unmarked) [Compound 268]
0.2 to 1 µM | COCC(=O)N1CCc2c([nH]c3ccc(Br)cc23)C1c1ccc(OC)cc1 (centres unmarked) [Compound 204]
0.2 to 1 µM | COc1ccc(C2c3[nH]c4ccc(Cl)cc4c3CCN2C(=O)Nc2ccc(F)cc2)cc1 (centres unmarked) [Compound 179]
> 1 µM | COCCOCC(=O)N1CCc2c([nH]c3ccc(Br)cc23)C1c1cccc(Cl)c1 (centres unmarked) [Compound 259]
> 1 µM | COc1ccc(C2c3[nH]c4ccccc4c3CCN2C(=S)Nc2ccc(C)cc2)cc1 (centres unmarked) [Compound 317]
> 1 µM | Fc1ccc2[nH]c3c(c2c1)CCNC3c1ccc(Br)cc1 (centres unmarked) [Compound 256]

Same assay, conditions: Homo sapiens, HeLa cells, hypoxic conditions (1% O2)

Structure (SMILES) | EC50
O=C(Oc1ccc(F)cc1)N1CCc2c([nH]c3ccc(Cl)cc23)C1c1ccc(OCCCCNCCO)cc1 (centres unmarked) [Compound 735] | < 0.008 µM
Cc1ccc(OC(=O)N2CCc3c([nH]c4ccc(Cl)cc34)C2c2ccc(OCCCN(C)C)cc2)cc1 (centres unmarked) [Compound 502] | 0.04 to 0.2 µM
O=C(Oc1ccc(Cl)cc1)N1CCc2c([nH]c3ccc(Cl)cc23)C1c1ccc(OCCCCCCNCCCn2ccnc2)cc1 (centres unmarked) [Compound 789] | 0.04 to 0.2 µM
O=C(CN1CCOCC1)Nc1ccc(C2c3[nH]c4ccc(Cl)cc4c3CCN2C(=O)Oc2ccc(Cl)cc2)cc1 (centres unmarked) [Compound 454] | 0.008 to 0.04 µM
O=C(Oc1ccc(Cl)cc1)N1CCc2c([nH]c3ccc(Cl)cc23)C1c1ccc(OCCCCCCN2CCOCC2)cc1 (centres unmarked) [Compound 786] | < 0.008 µM
CN(C)CCCOc1ccc(C2c3[nH]c4ccc(Cl)cc4c3CCN2C(=O)Oc2ccccc2)cc1 (centres unmarked) [Compound 493] | 0.04 to 0.2 µM
O=C(Oc1ccc(Cl)cc1)N1CCc2c([nH]c3ccc(Cl)cc23)C1c1ccc(OCCCCN2CCOCC2)cc1 (centres unmarked) [Compound 702] | 0.008 to 0.04 µM

Results, then the compound that gave them:

EC50 | Structure (SMILES)
0.2 to 1 µM | CCOC(=O)N1CCc2c([nH]c3ccc(Br)cc23)C1c1ccc(CN2CCCN(C)CC2)cc1 (centres unmarked) [Compound 541]
0.2 to 1 µM | CCOC(=O)N1CCc2c([nH]c3ccc(Cl)cc23)C1C(C)CC (centres unmarked) [Compound 547]
0.2 to 1 µM | CCOC(=O)N1CCc2c([nH]c3ccc(Cl)cc23)C1c1ccc(C(=O)N2CCC(N3CCCCC3)CC2)cc1 (centres unmarked) [Compound 531]
0.008 to 0.04 µM | CCOC(=O)N1CCc2c([nH]c3ccc(Cl)cc23)C1CC(C)C (centres unmarked) [Compound 472]
0.008 to 0.04 µM | COCCOc1ccc(C2c3[nH]c4ccc(Cl)cc4c3CCN2C(=O)Oc2ccc(OC)cc2)cc1 (centres unmarked) [Compound 465]
< 0.008 µM | O=C(Oc1ccccc1)N1CCc2c([nH]c3ccc(Cl)cc23)C1c1ccc(OCCCCl)cc1 (centres unmarked) [Compound 710]
< 0.008 µM | COCCOc1ccc(C2c3[nH]c4ccc(Cl)cc4c3CCN2C(=O)Oc2ccc(Cl)cc2)cc1 (centres unmarked) [Compound 418]
0.008 to 0.04 µM | COCCOCCOc1ccc(C2c3[nH]c4ccc(Cl)cc4c3CCN2C(=O)Oc2ccc(C)cc2)cc1 (centres unmarked) [Compound 677]
0.2 to 1 µM | CCOC(=O)N1CCc2c([nH]c3ccc(Cl)cc23)C1C(C)Cc1ccc(C(C)C)cc1 (centres unmarked) [Compound 523]
0.2 to 1 µM | CCOC(=O)N1CCc2c([nH]c3ccc(Br)cc23)C1c1ccc(CNCCN2CCOCC2)cc1 (centres unmarked) [Compound 535]
0.04 to 0.2 µM | O=C(Oc1ccc(Cl)cc1)Oc1ccc(C2c3[nH]c4ccc(Cl)cc4c3CCN2C(=O)Oc2ccc(Cl)cc2)cc1 (centres unmarked) [Compound 578]
0.008 to 0.04 µM | COC(=O)c1ccc(C2c3[nH]c4ccc(Br)cc4c3CCN2C(=O)Oc2ccccc2Cl)cc1 (centres unmarked) [Compound 593]
< 0.008 µM | C=CCOc1ccc(C2c3[nH]c4ccc(Cl)cc4c3CCN2C(=O)Oc2ccc(Cl)cc2)cc1 (centres unmarked) [Compound 400]
< 0.008 µM | O=C(Oc1ccc(Cl)cc1)N1CCc2c([nH]c3ccc(Cl)cc23)C1c1ccc(OCCCCCl)cc1 (centres unmarked) [Compound 660]
< 0.008 µM | O=C(Oc1ccc(Cl)cc1)N1CCc2c([nH]c3ccc(Cl)cc23)C1c1ccc(NC2CCOCC2)cc1 (centres unmarked) [Compound 440]
> 1 µM | CCOC(=O)N1CCc2c([nH]c3ccc(Cl)cc23)C1c1ccc(C(=O)N(C)CCN(C)C)cc1 (centres unmarked) [Compound 563]

Same assay, conditions: Homo sapiens, HeLa cells, hypoxic conditions (1% O2, 5% CO2)

Structure (SMILES) | EC50
O=C(Oc1ccc(Cl)cc1)N1CCc2c([nH]c3ccc(Cl)cc23)C1c1ccc(OCCNc2nccs2)cc1 (centres unmarked) [#841] | < 0.008 µM
CN1CCN(CC(O)COc2ccc(C3c4[nH]c5ccc(Cl)cc5c4CCN3C(=O)Oc3ccc(Cl)cc3)cc2)CC1 (centres unmarked) [Compound 970] | 0.008 to 0.04 µM

Second part, the compound after the results:

EC50 | Structure (SMILES)
0.04 to 0.2 µM | O=C(Oc1ccc(F)cc1)N1CCc2c([nH]c3ccc(Cl)cc23)C1c1ccc(OCCn2ccnc2)cc1 (centres unmarked) [Compound 835]
0.008 to 0.04 µM | O=C(Oc1ccc(Cl)cc1)N1CCc2c([nH]c3ccc(Cl)cc23)C1c1ccc(OCCn2ccnn2)cc1 (centres unmarked) [Compound 839]
0.008 to 0.04 µM | O=C(Oc1ccc(Cl)cc1)N1CCc2c([nH]c3ccc(Cl)cc23)C1c1ccc(OCC(O)Cn2ccnn2)cc1 (centres unmarked) [Compound 973]

— US8076352B2, “Administration of carboline derivatives useful in the treatment of cancer and other diseases” (PTC Therapeutics, Inc., priority 2004, dated 2011)
